The target in this assay is T1, P2X7 receptor (Homo sapiens, UniProt Q99572).
T1 construct: host or cells: THP-1 cells differentiated with LPS and IFN-γ
T1 sequence (Q99572 1-595): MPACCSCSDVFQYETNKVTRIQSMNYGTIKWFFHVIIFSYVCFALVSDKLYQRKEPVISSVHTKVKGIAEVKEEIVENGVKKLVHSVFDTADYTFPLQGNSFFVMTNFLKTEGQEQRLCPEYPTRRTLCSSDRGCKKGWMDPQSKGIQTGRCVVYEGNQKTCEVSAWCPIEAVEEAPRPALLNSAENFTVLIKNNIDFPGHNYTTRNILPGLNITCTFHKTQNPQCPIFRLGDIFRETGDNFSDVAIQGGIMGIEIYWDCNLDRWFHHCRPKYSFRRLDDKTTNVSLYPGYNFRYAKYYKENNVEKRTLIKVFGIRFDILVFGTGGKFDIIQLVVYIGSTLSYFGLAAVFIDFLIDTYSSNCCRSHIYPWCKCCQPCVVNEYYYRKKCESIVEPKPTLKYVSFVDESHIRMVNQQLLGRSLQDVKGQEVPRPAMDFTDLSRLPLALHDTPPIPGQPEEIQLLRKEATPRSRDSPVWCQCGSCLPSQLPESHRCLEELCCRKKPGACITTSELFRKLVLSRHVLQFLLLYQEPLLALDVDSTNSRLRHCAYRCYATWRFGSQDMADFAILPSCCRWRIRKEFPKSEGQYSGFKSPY
Kind of assay: IL-1β release assay in differentiated THP-1 cells stimulated with BzATP (Example 9). Format: cell-based. Also noted: inhibition: dose or concentration left out as unconfirmed. The conditions noted are these: for inhibition: THP-1, read-out: IL-1β % Inhib.; for inhibition at 0.3 µM: 0.3 μM compound, read-out: IL-1β % Inhib. @ 0.3 μM; for inhibition at 0.3 µM / inhibition at 0.1 µM: differentiated THP-1 cells, BzATP 250 uM; for pIC50: THP-1 cells, BzATP-stimulated IL-1β release, four parameter logistic fit; for inhibition at 0.1 µM: 0.1 μM compound. The essentials: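 THP-1 cells differentiated 16 h with LPS and IFN-γ (100 ng/mL each), re-primed 2 h with LPS, then compound-pretreated 30 min before 250 uM BzATP for 45 min. Supernatant IL-1β quantified by ELISA; background-adjusted percent inhibition fitted to four-parameter logistic for IC50.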

Setting [1] is: '*' class symbols, read-out: IL-1β % Inhib. (asterisk classes, 0.1 μM).

pIC50: −log10 of the molar value. Where two headings read alike, the source gives them in different places.

Regarding `CC(C)(C)c1ccc(C(=O)Nc2cccc3c(=O)n(Cc4cccnc4)ccc23)cc1` [Compound 1446], the inhibition lay within 0 to 25%. Same read-out and setting: the value for `COc1ccc(C(=O)Nc2cccc3c(=O)n(CCN(C)C)ccc23)cc1Cl` [Compound 1402] was 0 to 25%. On to `Cn1ccc2c(NC(=O)CC3CCCCCC3)cccc2c1=O` [Compound 1024, 2-Cycloheptyl-N-(2-methyl-1-oxo-1,2-dihydro-isoquinolin-5-yl)-acetamide], for which the pIC50 is 7.50. In addition, where the note is “'+' class symbols”, the inhibition at 0.3 µM is no less than 76%.

On to `Cc1ccccc1C(=O)Nc1cccc2c(=O)n(CC3CCOCC3)ccc12` [Compound 1085], for which the inhibition at 0.3 µM ('+' class symbols) lay within 0 to 25%. As to `COc1cccc(CCC(=O)Nc2cccc3c(=O)n(CC4CCN(C)CC4)ccc23)c1` [Compound 1459], the inhibition lay within 26 to 50%. With `CCOc1ccccc1CC(=O)Nc1cccc2c(=O)n(CCOC)ccc12` [Compound 1336], for the setting “symbols + to ++++”, the inhibition at 0.3 µM lay within 0 to 25%. For the molecule `CC(=O)OCCn1ccc2c(NC(=O)CC3CCN(C(=O)OC(C)(C)C)CC3)cccc2c1=O` [Compound 1011], the pIC50 is less than 6.00. Also, under “'+' class symbols”, the inhibition at 0.3 µM was in the range of 0 to 25%.

For `CN(C)CCn1ccc2c(NC(=O)c3cccc4c3OCCO4)cccc2c1=O` [Compound 1169], the inhibition at 0.3 µM ('+' class symbols) lay within 0 to 25%. For `COc1ccc(OC)c(CC(=O)Nc2cccc3c(=O)n(CCN(C)C)ccc23)c1` [Compound 1156], the inhibition at 0.3 µM ('+' class symbols) was in the range of 0 to 25%. For `CC(C)(C)Cn1ccc2c(NC(=O)CCc3cccc(Cl)c3)cccc2c1=O` [Compound 1287], for the setting “symbols + to ++++”, the inhibition at 0.3 µM was in the range of 0 to 25%.

Consider `COCCn1ccc2c(NC(=O)c3cc4ccccc4o3)cccc2c1=O` [Compound 1320], for which, under “symbols + to ++++”, the inhibition at 0.3 µM is 0 to 25%. As to `CCOc1ccc(C(=O)Nc2cccc3c(=O)n(CCOC)ccc23)c(O)c1` [Compound 1059], the inhibition at 0.1 µM under setting [1] was in the range of 0 to 25%.

For `O=C(CC1CCCCCC1)Nc1cccc2c(=O)n(CC3CCOCC3)ccc12` [Compound 1373, 2-Cycloheptyl-N-[1-oxo-2-(tetrahydro-pyran-4-ylmethyl)-1,2-dihydro-isoquinolin-5-yl]-acetamide], the pIC50 is 7.14. Also, the inhibition at 0.3 µM (symbols + to ++++) is no less than 76%. Consider `Cc1cc(C)cc(CC(=O)Nc2cccc3c(=O)n(CC4CCN(C)CC4)ccc23)c1` [Compound 1482], for which the inhibition lay within 26 to 50%.

For the molecule `Cc1ccc(CC(=O)Nc2cccc3c(=O)n(CCCN4CCCC4=O)ccc23)cc1` [Compound 1524], the inhibition lay within 0 to 25%. Take `COc1ccccc1CC(=O)Nc1cccc2c(=O)n(CC3CCOCC3)ccc12` [Compound 1099]: the inhibition at 0.3 µM ('+' class symbols) lay within 0 to 25%. With `COc1cc(CC(=O)Nc2cccc3c(=O)n(CCN4CCOCC4)ccc23)cc(OC)c1` [Compound 1218], the inhibition at 0.3 µM (symbols + to ++++) fell in the range of 26 to 50%. Take `COc1ccc(C(=O)Nc2cccc3c(=O)n(CC(C)(C)C)ccc23)cc1C` [Compound 1418]: the inhibition was in the range of 0 to 25%. Consider `Cc1ccc(Cl)cc1C(=O)Nc1cccc2c(=O)n(CC3CCOCC3)ccc12` [Compound 1129], for which the inhibition at 0.3 µM ('+' class symbols) was 0 to 25%. Regarding `COc1ccc(CC(=O)Nc2cccc3c(=O)n(CC(C)(C)C)ccc23)cc1OC` [Compound 1258], for the setting “symbols + to ++++”, the inhibition at 0.3 µM was 0 to 25%.

In the case of `COCCn1ccc2c(NC(=O)Cc3csc4ccccc34)cccc2c1=O` [Compound 1329], the inhibition at 0.3 µM (symbols + to ++++) is 0 to 25%. For the molecule `Cc1ccccc1CC(=O)Nc1cccc2c(=O)n(CCN3CCOCC3)ccc12` [Compound 1208], the inhibition at 0.3 µM (symbols + to ++++) lay within 0 to 25%.

Turning to `Cc1cc(Cl)ccc1C(=O)Nc1cccc2c(=O)n(CC(C)(C)C)ccc12` [Compound 1269], the inhibition at 0.3 µM (symbols + to ++++) lay within 0 to 25%. Turning to `COc1cc(OC)cc(C(=O)Nc2cccc3c(=O)n(CC4CCOCC4)ccc23)c1` [Compound 1089], the inhibition at 0.3 µM ('+' class symbols) lay within 0 to 25%. As to `O=C(CCc1ccc(Cl)cc1)Nc1cccc2c(=O)n(CCN3CCOCC3)ccc12` [Compound 1232], under “symbols + to ++++”, the inhibition at 0.3 µM lay within 0 to 25%. With `CCOc1ccc(C(=O)Nc2cccc3c(=O)n(CCN(C)C)ccc23)cc1` [Compound 1146], under setting [1], the inhibition at 0.1 µM was 0 to 25%. `COCCn1ccc2c(NC(=O)c3cccc(C)c3Cl)cccc2c1=O` [Compound 1339]: where the note is “symbols + to ++++”, the inhibition at 0.3 µM was 0 to 25%. The same measure, in the same setting: the value for `COCCn1ccc2c(NC(=O)CCc3ccc(C)cc3C)cccc2c1=O` [Compound 1341] was 0 to 25%. As for `O=C(CCc1cccc(Cl)c1)Nc1cccc2c(=O)n(CCCN3CCCC3=O)ccc12` [Compound 1547], the inhibition lay in the range of 0 to 25%. For `Cn1ccc2c(NC(=O)Cc3ccc4c(c3)OCO4)cccc2c1=O` [Compound 1301], the inhibition at 0.3 µM (symbols + to ++++) was 0 to 25%. On to `Cc1ccc(C)c(C(=O)Nc2cccc3c(=O)n(CCN4CCOCC4)ccc23)c1` [Compound 1194], for which the inhibition at 0.3 µM ('+' class symbols) is 0 to 25%. Take `COc1ccccc1CC(=O)Nc1cccc2c(=O)n(Cc3ccc(OC(F)(F)F)cc3)ccc12` [Compound 1577]: the inhibition lay within 0 to 25%. For the molecule `COc1cccc(CC(=O)Nc2cccc3c(=O)n(Cc4cccnc4)ccc23)c1` [Compound 1353], the inhibition at 0.3 µM (symbols + to ++++) fell in the range of 0 to 25%. `COc1ccc(OC)c(CC(=O)Nc2cccc3c(=O)n(CC4CCN(C)CC4)ccc23)c1` [Compound 1472]: the inhibition is 0 to 25%. With `CC(C)(C)Cn1ccc2c(NC(=O)[C@@]34C[C@@H]5C[C@@H](C[C@@H]3C5)C4)cccc2c1=O` [Compound 1271], for the setting “symbols + to ++++”, the inhibition at 0.3 µM lay in the range of 0 to 25%. In the case of `CC(C)Cc1ccc(C(=O)Nc2cccc3c(=O)n(CC4CCOCC4)ccc23)cc1` [Compound 1136], the inhibition at 0.3 µM ('+' class symbols) was in the range of 0 to 25%. `Cn1ccc2c(NC(=O)Cc3ccccc3F)cccc2c1=O` [Compound 1294]: the inhibition at 0.3 µM (symbols + to ++++) was 0 to 25%. The same measure, in the same setting: as for `COc1ccccc1CC(=O)Nc1cccc2c(=O)n(C)ccc12` [Compound 1295], the figure is 0 to 25%. On to `COc1ccc(CC(=O)Nc2cccc3c(=O)n(Cc4ccc(OC(F)(F)F)cc4)ccc23)cc1OC` [Compound 1581], for which the inhibition is 0 to 25%. On the same count and under the same terms, as for `CCOc1ccc(CC(=O)Nc2cccc3c(=O)n(CCCN4CCCC4=O)ccc23)cc1` [Compound 1523], the figure is 0 to 25%. Take `Cc1cccc(CCC(=O)Nc2cccc3c(=O)n(Cc4ccc(OC(F)(F)F)cc4)ccc23)c1` [Compound 1606]: the inhibition at 0.1 µM ("*" class symbols, read-out: IL-1β % Inhib. ("*" symbols: at 0.1 μM)) lay in the range of 0 to 25%. Consider `CC(C(=O)Nc1cccc2c(=O)n(Cc3cccnc3)ccc12)c1ccccc1` (stereo not shown) [Compound 1347], for which the inhibition at 0.1 µM (symbols * to ****, read-out: IL-1β % Inhib. (asterisk symbols: at 0.1 μM)) fell in the range of 26 to 50%. Turning to `COCCn1ccc2c(NC(=O)Cc3ccccc3Cl)cccc2c1=O` [Compound 1436], the inhibition was in the range of 0 to 25%. With `COCCn1ccc2c(NC(=O)Cc3ccc(OC)cc3OC)cccc2c1=O` [Compound 1333], the inhibition at 0.3 µM (symbols + to ++++) lay within 0 to 25%.

As to `Cc1cccc(CCC(=O)Nc2cccc3c(=O)n(CCCN4CCCC4=O)ccc23)c1` [Compound 1542], the inhibition lay in the range of 0 to 25%. As to `COc1ccc(C(=O)Nc2cccc3c(=O)n(C)ccc23)cc1C` [Compound 1424], the inhibition lay within 0 to 25%. For the molecule `Cc1c(Cl)cccc1C(=O)Nc1cccc2c(=O)n(CCN(C)C)ccc12` [Compound 1172], the inhibition at 0.3 µM ('+' class symbols) lay in the range of 0 to 25%. For `COc1ccc(C(=O)Nc2cccc3c(=O)n(CCCN4CCCC4=O)ccc23)cc1C` [Compound 1545], the inhibition was in the range of 0 to 25%.

Turning to `CN(C)CCn1ccc2c(NC(=O)Cc3ccc4c(c3)OCO4)cccc2c1=O` [Compound 1163], the inhibition at 0.3 µM ('+' class symbols) lay within 0 to 25%. Regarding `O=C(Nc1cccc2c(=O)n(CC3CCOCC3)ccc12)c1ccc(-c2ccccc2)o1` [Compound 1026], the inhibition at 0.1 µM under setting [1] was 26 to 50%. With `Cc1cc(C(=O)Nc2cccc3c(=O)n(Cc4cccnc4)ccc23)ccc1F` [Compound 1454], the inhibition was in the range of 0 to 25%. The molecule `CC(=O)OCCn1ccc2c(NC(=O)CCc3ccc(S(C)(=O)=O)cc3)cccc2c1=O` [Compound 1383] had a pIC50 of less than 6.00. The inhibition at 0.3 µM (symbols + to ++++) lay within 0 to 25%. With `O=C(Nc1cccc2c(=O)n(CCN3CCOCC3)ccc12)c1ccc(-c2ccccc2)o1` [Compound 1040], for the setting “'+' class symbols”, the inhibition at 0.3 µM was in the range of 0 to 25%. With `COc1cccc(CCC(=O)Nc2cccc3c(=O)n(Cc4cccnc4)ccc23)c1` [Compound 1075], for the setting “'+' class symbols”, the inhibition at 0.3 µM lay within 0 to 25%.

Take `CN(C)CCn1ccc2c(NC(=O)CCc3ccc(Cl)cc3)cccc2c1=O` [Compound 1176]: for the setting “'+' class symbols”, the inhibition at 0.3 µM lay in the range of 0 to 25%. `CC(C(=O)Nc1cccc2c(=O)n(CCS(C)(=O)=O)ccc12)c1ccc(Cl)cc1` (stereo not shown) [Compound 1631] showed a pIC50 of less than 6.00. Moreover, the inhibition at 0.3 µM ("+" class symbols) lay within 0 to 25%.
